From ChEMBL document CHEMBL2401728, “An unexpected Dimroth rearrangement leading to annelated thieno[3,2-d][1,2,3]triazolo[1,5-a]pyrimidines with potent antitumor activity” (Eur J Med Chem, 2013)

How the values were obtained:
Format in all cases: functional
DU-145 = experiment: Cytotoxicity against human DU145 cells assessed as cellular growth at 0.1 uM after 48 hrs by SRB assay relative to control
Malme-3M [1] = experiment: Cytotoxicity against human MALME-3M cells after 48 hrs by SRB assay
MCF7 = experiment: Cytotoxicity against human MCF7 cells assessed as cellular growth at 0.01 uM after 48 hrs by SRB assay relative to control
KM12 = experiment: Cytotoxicity against human KM12 cells assessed as cellular growth at 1 uM after 48 hrs by SRB assay relative to control
MDA-MB-468 [2] = experiment: Cytotoxicity against human MDA-MB-468 cells after 48 hrs by SRB assay; details: MDA-MB-468, 48 h
[3] = Cytotoxicity against human EKVX cells assessed as cellular growth at 0.1 uM after 48 hrs by SRB assay relative to control
MDA-MB-231 = experiment: Cytotoxicity against human MDA-MB-231 cells assessed as cellular growth at 1 uM after 48 hrs by SRB assay relative to control
TK-10 [4] = experiment: Cytotoxicity against human TK10 cells after 48 hrs by SRB assay; details: TK-10, 48 h
LOX IMVI = experiment: Cytotoxicity against human LOXIMVI cells assessed as cellular growth at 0.01 uM after 48 hrs by SRB assay relative to control
HCT-15 [5] = experiment: Cytotoxicity against human HCT15 cells assessed as cellular growth at 0.01 uM after 48 hrs by SRB assay relative to control
M14 = experiment: Cytotoxicity against human M14 cells assessed as cellular growth at 10 uM after 48 hrs by SRB assay relative to control
NCI-H23 [6] = experiment: Cytotoxicity against human NCI-H23 cells assessed as cellular growth at 1 uM after 48 hrs by SRB assay relative to control
TK-10 [7] = experiment: Cytotoxicity against human TK10 cells assessed as cellular growth at 100 uM after 48 hrs by SRB assay relative to control
[8] = Cytotoxicity against human NCI-ADR-RES cells assessed as cellular growth at 1 uM after 48 hrs by SRB assay relative to control
OVCAR-3 = experiment: Cytotoxicity against human OVCAR3 cells assessed as cellular growth at 1 uM after 48 hrs by SRB assay relative to control
HCT-15 [9] = experiment: Cytotoxicity against human HCT15 cells assessed as cellular growth at 0.1 uM after 48 hrs by SRB assay relative to control
SF-539 = experiment: Cytotoxicity against human SF539 cells assessed as cellular growth at 0.01 uM after 48 hrs by SRB assay relative to control
SNB-19 = experiment: Cytotoxicity against human SNB19 cells assessed as cellular growth at 100 uM after 48 hrs by SRB assay relative to control
Malme-3M [10] = experiment: Cytotoxicity against human MALME-3M cells assessed as cellular growth at 0.1 uM after 48 hrs by SRB assay relative to control
A498 = experiment: Cytotoxicity against human A498 cells assessed as cellular growth at 0.1 uM after 48 hrs by SRB assay relative to control
Hs-578T = experiment: Cytotoxicity against human Hs578T cells after 48 hrs by SRB assay
SK-OV-3 [11] = experiment: Cytotoxicity against human SKOV3 cells assessed as cellular growth at 0.01 uM after 48 hrs by SRB assay relative to control
SNB-75 = experiment: Cytotoxicity against human SNB75 cells after 48 hrs by SRB assay; details: SNB-75, 48 h
TK-10 [12] = experiment: Cytotoxicity against human TK10 cells assessed as cellular growth at 0.01 uM after 48 hrs by SRB assay relative to control
BT-549 = experiment: Cytotoxicity against human BT549 cells after 48 hrs by SRB assay; details: BT-549, 48 h
SK-OV-3 [13] = experiment: Cytotoxicity against human SKOV3 cells assessed as cellular growth at 100 uM after 48 hrs by SRB assay relative to control
K562 [14] = experiment: Cytotoxicity against human K562 cells after 48 hrs by SRB assay; details: K562, 48 h
UACC-257 = experiment: Cytotoxicity against human UACC257 cells assessed as cellular growth at 100 uM after 48 hrs by SRB assay relative to control
786-0 = experiment: Cytotoxicity against human 786-0 cells assessed as cellular growth at 10 uM after 48 hrs by SRB assay relative to control
NCI-H226 = experiment: Cytotoxicity against human NCI-H226 cells assessed as cellular growth at 1 uM after 48 hrs by SRB assay relative to control
K562 [15] = experiment: Cytotoxicity against human K562 cells assessed as cellular growth at 1 uM after 48 hrs by SRB assay relative to control
SF-268 = experiment: Cytotoxicity against human SF268 cells assessed as cellular growth at 1 uM after 48 hrs by SRB assay relative to control
NCI-H23 [16] = experiment: Cytotoxicity against human NCI-H23 cells assessed as cellular growth at 0.01 uM after 48 hrs by SRB assay relative to control
MDA-MB-468 [17] = experiment: Cytotoxicity against human MDA-MB-468 cells assessed as cellular growth at 0.01 uM after 48 hrs by SRB assay relative to control
OVCAR-5 = experiment: Cytotoxicity against human OVCAR5 cells assessed as cellular growth at 0.01 uM after 48 hrs by SRB assay relative to control
[18] = Cytotoxicity against human NCI-ADR-RES cells after 48 hrs by SRB assay
[19] = read-out: LC50 (the source's name)
[20] = read-out: pLC50 (the source's name) (converted)

Molecule O=C(CCCn1c2c(sc3ccccc32)c(=O)n2nnc(-c3ccccc3)c12)NCCc1c[nH]cn1 has an Activity (DU-145) of 87%, a GI50 (Malme-3M [1]; read-out: GI50) of 1.58 µM and a CC50 (Malme-3M [1]; [19]) of 6.8 µM. The TGI (Malme-3M [1]; read-out: TGI) was 3.28 µM, the GI50 (Malme-3M [1]; read-out: pGI50 (converted)) was 1.58 µM and the CC50 (Malme-3M [1]; [20]) was 6.76 µM. For the same molecule, the TGI (Malme-3M [1]; read-out: pTGI (converted)) was 3.31 µM, the Activity (MCF7) was 98% and the Activity (KM12) was 39%. The GI50 (MDA-MB-468 [2]; read-out: GI50) was 0.339 µM, the CC50 (MDA-MB-468 [2]; [19]) was 3.77 µM and the TGI (MDA-MB-468 [2]; read-out: TGI) was 1.21 µM. The GI50 (MDA-MB-468 [2]; read-out: pGI50 (converted)) was 0.339 µM, the CC50 (MDA-MB-468 [2]; [20]) was 3.8 µM and the TGI (MDA-MB-468 [2]; read-out: pTGI (converted)) was 1.2 µM. It also gave an Activity [3] of 83%, an Activity (MDA-MB-231) of 101% and a GI50 (TK-10 [4]; read-out: GI50) of 2.17 µM. It also gave a CC50 (TK-10 [4]; [19]) of 6.42 µM, a TGI (TK-10 [4]; read-out: TGI) of 3.73 µM and a GI50 (TK-10 [4]; read-out: pGI50 (converted)) of 2.19 µM. The CC50 (TK-10 [4]; [20]) was 6.46 µM, the TGI (TK-10 [4]; read-out: pTGI (converted)) was 3.72 µM and the Activity (LOX IMVI) was 103%. The Activity (HCT-15 [5]) was 96%, the Activity (M14) was -80.56% and the Activity (NCI-H23 [6]) was 65%. For the same molecule, the Activity (TK-10 [7]) was -79%, the Activity [8] was 51% and the Activity (OVCAR-3) was 92%. The Activity (HCT-15 [9]) was 78%, the Activity (SF-539) was 73% and the Activity (SNB-19) was -84%. For the same molecule, the Activity (Malme-3M [10]) was 101%, the Activity (A498) was 72% and the GI50 (Hs-578T; read-out: GI50) was 1.47 µM. It also gave a TGI (Hs-578T; read-out: TGI) of 3.82 µM, a GI50 (Hs-578T; read-out: pGI50 (converted)) of 1.48 µM and a TGI (Hs-578T; read-out: pTGI (converted)) of 3.8 µM. The Activity (SK-OV-3 [11]) was 108%, the GI50 (SNB-75; read-out: GI50) was 1.95 µM and the CC50 (SNB-75; [19]) was 6.32 µM. For the same molecule, the TGI (SNB-75; read-out: TGI) was 3.51 µM, the GI50 (SNB-75; read-out: pGI50 (converted)) was 1.95 µM and the CC50 (SNB-75; [20]) was 6.31 µM. It also gave a TGI (SNB-75; read-out: pTGI (converted)) of 3.55 µM, an Activity (TK-10 [12]) of 96% and a GI50 (BT-549; read-out: GI50) of 3.32 µM. For the same molecule, the LC50 (concentration killing 50% of cells) (BT-549; read-out: LC50) was 51.5 µM, the TGI (BT-549; read-out: TGI) was 11.4 µM and the GI50 (BT-549; read-out: pGI50 (converted)) was 3.31 µM. For the same molecule, the LC50 (concentration killing 50% of cells) (BT-549; read-out: pLC50 (converted)) was 51.3 µM, the TGI (BT-549; read-out: pTGI (converted)) was 11.5 µM and the Activity (SK-OV-3 [13]) was -100%. The GI50 (K562 [14]; read-out: GI50) was 0.0227 µM, the CC50 (K562 [14]; [19]) was 5.18 µM and the TGI (K562 [14]; read-out: TGI) was 1.02 µM. The GI50 (K562 [14]; read-out: pGI50 (converted)) was 0.0229 µM, the CC50 (K562 [14]; [20]) was 5.13 µM and the TGI (K562 [14]; read-out: pTGI (converted)) was 1.02 µM. It also gave an Activity (UACC-257) of -80%, an Activity (786-0) of -89% and an Activity (NCI-H226) of 101%. The Activity (K562 [15]) was 1%, the Activity (SF-268) was 79% and the Activity (NCI-H23 [16]) was 92%. The Activity (MDA-MB-468 [17]) was 102%, the Activity (OVCAR-5) was 94% and the GI50 ([18]; read-out: GI50) was 1.07 µM. For the same molecule, the CC50 [18, 19] was greater than 100 µM, the TGI ([18]; read-out: TGI) was greater than 100 µM and the GI50 ([18]; read-out: pGI50 (converted)) was 1.07 µM.
